US10870647B2, “Imidazopyridine derivative, method for preparing same, and pharmaceutical composition containing same as active ingredient for preventing or treating cancer” (DAEGU-GYEONGBUK MEDICAL INNOVATION FOUNDATION, priority 2016, dated 2020)

Assays:
Test in all cases: Kinase selectivity, scanMAX Kinase assay panel (DiscoverX), % control at 1 uM
Type in all cases: binding
[1] = biological target: T1, scanMAX Kinase assay panel (Homo sapiens, UniProt O43293); conditions: DAPK3; 1 uM; read-out: Percent Control (%)
T1 construct: purchased DiscoverX
T1 sequence (O43293 whole entry): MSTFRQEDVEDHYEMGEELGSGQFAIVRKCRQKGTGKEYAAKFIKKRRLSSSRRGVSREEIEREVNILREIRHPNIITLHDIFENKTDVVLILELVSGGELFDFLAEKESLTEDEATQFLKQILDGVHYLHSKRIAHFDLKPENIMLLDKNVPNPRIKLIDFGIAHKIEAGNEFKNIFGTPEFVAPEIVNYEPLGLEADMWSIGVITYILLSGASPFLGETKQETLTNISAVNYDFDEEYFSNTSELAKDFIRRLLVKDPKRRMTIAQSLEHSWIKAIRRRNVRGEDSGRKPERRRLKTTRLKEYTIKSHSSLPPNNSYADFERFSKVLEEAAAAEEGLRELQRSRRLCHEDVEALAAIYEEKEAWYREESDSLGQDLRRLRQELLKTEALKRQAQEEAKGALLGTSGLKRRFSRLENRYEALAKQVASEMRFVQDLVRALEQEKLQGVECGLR
Procedure, shortened: (§1)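 Compounds were tested at 1 uM in DMSO against each enzyme in the panel. Percent control was calculated as (compound − positive control)/(negative control − positive control) × 100, and a compound was scored active on a kinase when this value fell below 35.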

[2] = biological target: T2, scanMAX Kinase assay panel (Homo sapiens, UniProt P10721, D816V); conditions: KIT (D816V); 1 uM; read-out: Percent Control (%)
T2 construct: purchased DiscoverX
T2 sequence (P10721 26-976 D816V): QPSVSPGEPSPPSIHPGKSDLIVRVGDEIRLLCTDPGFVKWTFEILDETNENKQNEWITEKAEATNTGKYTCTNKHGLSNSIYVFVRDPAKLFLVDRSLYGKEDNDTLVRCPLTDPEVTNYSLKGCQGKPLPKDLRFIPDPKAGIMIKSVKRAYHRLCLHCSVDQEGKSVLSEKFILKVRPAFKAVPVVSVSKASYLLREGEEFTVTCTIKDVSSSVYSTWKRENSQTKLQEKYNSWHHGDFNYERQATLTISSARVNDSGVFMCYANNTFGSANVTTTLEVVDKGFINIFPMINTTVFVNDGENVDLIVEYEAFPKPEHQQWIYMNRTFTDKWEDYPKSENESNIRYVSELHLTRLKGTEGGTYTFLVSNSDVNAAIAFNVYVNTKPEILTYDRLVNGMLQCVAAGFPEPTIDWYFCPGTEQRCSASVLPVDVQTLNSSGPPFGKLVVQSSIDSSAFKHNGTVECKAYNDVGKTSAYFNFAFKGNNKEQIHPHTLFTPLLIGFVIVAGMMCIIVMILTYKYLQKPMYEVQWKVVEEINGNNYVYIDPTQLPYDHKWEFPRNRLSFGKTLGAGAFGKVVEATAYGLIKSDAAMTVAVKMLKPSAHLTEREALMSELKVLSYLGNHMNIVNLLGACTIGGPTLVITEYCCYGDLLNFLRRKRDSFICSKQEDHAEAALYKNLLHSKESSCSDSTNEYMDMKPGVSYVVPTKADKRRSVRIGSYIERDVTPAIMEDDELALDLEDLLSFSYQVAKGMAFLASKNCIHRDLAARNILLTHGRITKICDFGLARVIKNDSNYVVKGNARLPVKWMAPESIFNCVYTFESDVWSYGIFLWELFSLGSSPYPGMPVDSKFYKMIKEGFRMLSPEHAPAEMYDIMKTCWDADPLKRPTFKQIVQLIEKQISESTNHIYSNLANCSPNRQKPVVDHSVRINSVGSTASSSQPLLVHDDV
Procedure, shortened: as §1

[3] = biological target: T3, scanMAX Kinase assay panel (Homo sapiens, UniProt P0C1S8); conditions: WEE2; 1 uM; read-out: Percent Control (%)
T3 construct: purchased DiscoverX
T3 sequence (P0C1S8 whole entry): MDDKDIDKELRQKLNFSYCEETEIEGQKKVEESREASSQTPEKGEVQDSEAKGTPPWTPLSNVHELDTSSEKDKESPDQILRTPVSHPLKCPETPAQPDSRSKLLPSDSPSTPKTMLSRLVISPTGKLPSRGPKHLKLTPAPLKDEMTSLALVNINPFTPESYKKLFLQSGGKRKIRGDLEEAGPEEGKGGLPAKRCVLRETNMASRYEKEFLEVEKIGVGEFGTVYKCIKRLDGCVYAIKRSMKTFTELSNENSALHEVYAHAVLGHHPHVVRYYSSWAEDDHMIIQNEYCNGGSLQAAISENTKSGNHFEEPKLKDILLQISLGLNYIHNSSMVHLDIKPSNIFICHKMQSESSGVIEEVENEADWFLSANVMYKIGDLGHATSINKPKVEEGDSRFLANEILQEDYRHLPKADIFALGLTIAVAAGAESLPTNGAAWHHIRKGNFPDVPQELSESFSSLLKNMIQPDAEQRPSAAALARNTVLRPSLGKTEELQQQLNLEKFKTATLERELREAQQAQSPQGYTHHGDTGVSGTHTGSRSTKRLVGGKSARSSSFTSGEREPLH
Procedure, shortened: as §1

[4] = biological target: T4, scanMAX Kinase assay panel (Homo sapiens, UniProt P21709); conditions: EPHA1; 1 uM; read-out: Percent Control (%)
T4 construct: purchased DiscoverX
T4 sequence (P21709 26-976): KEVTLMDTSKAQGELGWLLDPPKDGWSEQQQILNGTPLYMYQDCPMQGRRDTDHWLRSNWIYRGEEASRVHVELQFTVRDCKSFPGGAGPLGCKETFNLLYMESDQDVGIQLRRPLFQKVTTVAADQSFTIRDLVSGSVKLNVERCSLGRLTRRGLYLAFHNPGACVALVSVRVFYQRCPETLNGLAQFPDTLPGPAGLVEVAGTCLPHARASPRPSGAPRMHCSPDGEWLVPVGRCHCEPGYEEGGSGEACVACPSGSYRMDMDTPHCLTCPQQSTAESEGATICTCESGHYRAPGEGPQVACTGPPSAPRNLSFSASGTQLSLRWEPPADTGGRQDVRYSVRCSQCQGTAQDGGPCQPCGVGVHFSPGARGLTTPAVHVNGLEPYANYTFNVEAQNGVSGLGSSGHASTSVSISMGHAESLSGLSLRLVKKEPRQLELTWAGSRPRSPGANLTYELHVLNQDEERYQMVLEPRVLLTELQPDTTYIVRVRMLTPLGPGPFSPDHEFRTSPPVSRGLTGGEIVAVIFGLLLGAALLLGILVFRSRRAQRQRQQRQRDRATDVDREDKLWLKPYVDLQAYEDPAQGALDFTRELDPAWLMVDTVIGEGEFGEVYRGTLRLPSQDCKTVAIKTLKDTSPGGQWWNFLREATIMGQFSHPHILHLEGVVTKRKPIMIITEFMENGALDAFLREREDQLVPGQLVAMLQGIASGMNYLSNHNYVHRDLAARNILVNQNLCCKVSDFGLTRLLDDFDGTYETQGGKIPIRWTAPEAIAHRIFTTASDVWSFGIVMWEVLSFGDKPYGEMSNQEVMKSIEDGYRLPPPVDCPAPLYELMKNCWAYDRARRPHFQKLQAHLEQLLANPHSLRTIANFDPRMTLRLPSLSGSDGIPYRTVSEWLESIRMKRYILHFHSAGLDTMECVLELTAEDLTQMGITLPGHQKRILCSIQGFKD
Procedure, shortened: as §1

[5] = biological target: T5, scanMAX Kinase assay panel (Homo sapiens, UniProt Q99558); conditions: NIK; 1 uM; read-out: Percent Control (%)
T5 construct: purchased DiscoverX
T5 sequence (Q99558 whole entry): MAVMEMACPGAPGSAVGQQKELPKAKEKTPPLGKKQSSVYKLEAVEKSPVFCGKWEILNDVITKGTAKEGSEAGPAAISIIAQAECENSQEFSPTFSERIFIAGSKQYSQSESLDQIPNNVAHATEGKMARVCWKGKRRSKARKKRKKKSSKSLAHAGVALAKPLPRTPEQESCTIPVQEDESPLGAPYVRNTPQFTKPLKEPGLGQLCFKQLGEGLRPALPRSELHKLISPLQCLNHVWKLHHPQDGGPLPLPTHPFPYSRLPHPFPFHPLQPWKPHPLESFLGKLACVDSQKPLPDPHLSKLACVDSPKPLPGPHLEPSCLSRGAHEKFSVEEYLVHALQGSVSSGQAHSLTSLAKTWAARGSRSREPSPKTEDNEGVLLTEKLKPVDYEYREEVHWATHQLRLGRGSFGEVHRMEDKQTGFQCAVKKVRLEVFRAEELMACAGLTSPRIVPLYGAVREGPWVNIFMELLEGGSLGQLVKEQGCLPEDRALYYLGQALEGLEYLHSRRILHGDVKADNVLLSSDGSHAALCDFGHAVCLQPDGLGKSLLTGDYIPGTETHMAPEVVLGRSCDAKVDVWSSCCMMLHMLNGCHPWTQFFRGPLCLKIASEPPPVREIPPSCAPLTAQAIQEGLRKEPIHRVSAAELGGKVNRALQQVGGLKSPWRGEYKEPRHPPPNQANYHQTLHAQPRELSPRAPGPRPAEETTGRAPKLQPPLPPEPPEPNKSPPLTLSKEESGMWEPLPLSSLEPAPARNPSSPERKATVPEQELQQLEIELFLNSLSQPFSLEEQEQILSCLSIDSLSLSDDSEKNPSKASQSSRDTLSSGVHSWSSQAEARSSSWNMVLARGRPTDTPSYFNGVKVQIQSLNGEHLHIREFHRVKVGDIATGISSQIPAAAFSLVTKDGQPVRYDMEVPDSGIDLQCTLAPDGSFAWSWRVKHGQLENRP
Procedure, shortened: as §1

[6] = biological target: T6, scanMAX Kinase assay panel (Homo sapiens, UniProt Q9UQ88); conditions: CDC2L2; 1 uM; read-out: Percent Control (%)
T6 construct: purchased DiscoverX
T6 sequence (Q9UQ88 1-783): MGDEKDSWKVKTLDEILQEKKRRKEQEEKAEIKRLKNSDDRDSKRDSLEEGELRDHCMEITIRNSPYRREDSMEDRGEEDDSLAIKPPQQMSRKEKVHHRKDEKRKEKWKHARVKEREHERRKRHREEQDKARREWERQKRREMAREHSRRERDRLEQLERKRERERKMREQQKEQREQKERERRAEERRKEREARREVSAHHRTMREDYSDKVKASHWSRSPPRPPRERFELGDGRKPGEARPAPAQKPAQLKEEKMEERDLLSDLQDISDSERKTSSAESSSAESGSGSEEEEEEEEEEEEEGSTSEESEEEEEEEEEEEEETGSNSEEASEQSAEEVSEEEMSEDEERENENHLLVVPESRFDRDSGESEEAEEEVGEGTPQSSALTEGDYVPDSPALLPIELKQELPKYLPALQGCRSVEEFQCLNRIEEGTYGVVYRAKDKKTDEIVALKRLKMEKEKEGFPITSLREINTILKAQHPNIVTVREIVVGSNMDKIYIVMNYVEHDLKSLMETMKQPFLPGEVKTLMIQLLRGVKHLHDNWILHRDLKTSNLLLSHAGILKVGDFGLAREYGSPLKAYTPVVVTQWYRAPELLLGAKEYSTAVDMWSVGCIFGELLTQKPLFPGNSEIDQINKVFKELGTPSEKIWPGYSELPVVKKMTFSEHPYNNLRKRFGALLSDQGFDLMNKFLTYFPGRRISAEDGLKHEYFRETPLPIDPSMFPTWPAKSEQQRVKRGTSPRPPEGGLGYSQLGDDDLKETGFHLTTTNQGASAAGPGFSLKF
Procedure, shortened: as §1

[7] = biological target: T7, scanMAX Kinase assay panel (Homo sapiens, UniProt P09769); conditions: FGR; 1 uM; read-out: Percent Control (%)
T7 construct: purchased DiscoverX
T7 sequence (P09769 whole entry): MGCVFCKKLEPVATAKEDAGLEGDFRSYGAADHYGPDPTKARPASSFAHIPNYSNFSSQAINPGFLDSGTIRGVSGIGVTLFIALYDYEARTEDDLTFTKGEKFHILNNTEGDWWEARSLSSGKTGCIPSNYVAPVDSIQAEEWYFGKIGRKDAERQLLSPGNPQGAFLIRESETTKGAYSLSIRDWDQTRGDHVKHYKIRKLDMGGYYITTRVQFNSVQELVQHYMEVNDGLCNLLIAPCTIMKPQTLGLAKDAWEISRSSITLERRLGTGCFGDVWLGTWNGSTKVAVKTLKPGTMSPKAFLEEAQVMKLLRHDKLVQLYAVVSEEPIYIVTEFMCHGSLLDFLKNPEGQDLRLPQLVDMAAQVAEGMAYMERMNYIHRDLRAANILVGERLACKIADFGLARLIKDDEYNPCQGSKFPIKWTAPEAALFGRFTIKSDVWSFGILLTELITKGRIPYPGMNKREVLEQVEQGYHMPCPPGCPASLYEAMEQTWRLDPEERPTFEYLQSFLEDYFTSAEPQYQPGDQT
Procedure, shortened: as §1

SMILES	remaining binding at 1 µM [1]	remaining binding at 1 µM [2]	remaining binding at 1 µM [3]	remaining binding at 1 µM [4]	remaining binding at 1 µM [5]	remaining binding at 1 µM [6]	remaining binding at 1 µM [7]
Cc1ccc(C(=O)Nc2ccc(CN3CCN(C)CC3)c(C(F)(F)F)c2)cc1C#Cc1cnc2c(Nc3cnn(C)c3)cccn12 [Example 1, 4-methyl-3-((8-((1-methyl-1H-pyrazol-4-yl)amino)imidazo[1,2-a]pyridin-3-yl)ethynyl)-N-(4-((4-methylpiperazin-1-yl)methyl)-3-(trifluoromethyl)phenyl)benzamide]	68%	3%	60%	2%	91%	28%	0%
Cc1cn(-c2cc(NC(=O)c3ccc(C)c(C#Cc4cnc5c(Nc6cnn(C)c6)cccn45)c3)cc(C(F)(F)F)c2)cn1 [Example 12, 4-methyl-N-(3-(4-methyl-1H-imidazol-1-yl)-5-(trifluoromethyl)phenyl)-3-((8-((1-methyl-1H-pyrazol-4-yl)amino)imidazo[1,2-a]pyridin-3-yl)ethynyl)benzamide]	100%	7%	80%	8%	85%	72%	4%
Cc1ccc(NC(=O)C2(C(=O)Nc3ccc(F)cc3)CC2)cc1C#Cc1cnc2c(Nc3cnn(C(C)C)c3)cccn12 [Example 78]	100%	61%	100%	69%	97%	100%	80%
